According to ChEMBL document CHEMBL1124419, “Potential tumor- or organ-imaging agents. 29. Radioiodinated esters and amides of 20-hydroxy- and 20-aminopregn-5-en-3 beta-ols” (J Med Chem, 1989):

Columns and labels:
Conditions in all cases: in vivo
[1] = test system: Rattus norvegicus; assay: Concentration accumulated in thyroid at 0.5 hr after intravenous administration in rat; assay type: ADME, organism-based, Thyroid gland
[2] = test system: Rattus norvegicus; assay: Concentration accumulated in thyroid at 24 hr r after intravenous administration in rat; assay type: ADME, organism-based, Thyroid gland
[3] = test system: Rattus norvegicus; assay: Concentration accumulated in adrenal cortex at 24 hr r after intravenous administration in rat; assay type: ADME, organism-based
[4] = test system: Rattus norvegicus; assay: Concentration accumulated in blood at 0.5 hr after intravenous administration in rat; assay type: ADME, organism-based
[5] = test system: Rattus norvegicus; assay: Concentration accumulated in blood at 24 hr r after intravenous administration in rat; assay type: ADME, organism-based
[6] = test system: Rattus norvegicus; assay: Concentration accumulated in kidney at 0.5 hr after intravenous administration in rat; assay type: ADME, organism-based
[7] = test system: Rattus norvegicus; assay: Concentration accumulated in kidney at 24 hr r after intravenous administration in rat; assay type: ADME, organism-based
[8] = test system: Rattus norvegicus; assay: Concentration accumulated in liver at 0.5 hr after intravenous administration in rat; assay type: ADME, organism-based
[9] = test system: Rattus norvegicus; assay: Concentration accumulated in liver at 24 hr r after intravenous administration in rat; assay type: ADME, organism-based
[10] = test system: Rattus norvegicus; assay: Concentration accumulated in ovary at 0.5 hr after intravenous administration in rat; assay type: ADME, organism-based, Female gonad
[11] = test system: Rattus norvegicus; assay: Concentration accumulated in ovary at 24 hr r after intravenous administration in rat; assay type: ADME, organism-based, Female gonad
[12] = test system: Rattus norvegicus; assay: Concentration accumulated in adrenal cortex at 0.5 hr after intravenous administration in rat; assay type: ADME, organism-based

Structure (SMILES)	Dose/g [1] [%]	Dose/g [2] [%]	Dose/g [3] [%]	Dose/g [4] [%]	Dose/g [5] [%]	Dose/g [6] [%]	Dose/g [7] [%]	Dose/g [8] [%]	Dose/g [9] [%]	Dose/g [10] [%]	Dose/g [11] [%]	Dose/g [12] [%]
C[C@@H](NC(=O)c1ccccc1I)C1CCC2C3CC=C4CC(O)CCC4(C)C3CCC21C (stereo not given in full)	1.4	24.65	0.55	0.08	< 0.01	0.47	0.02	1.28	0.22	0.53	0.07	1.66
C[C@H](NC(=O)c1ccccc1I)C1CCC2C3CC=C4CC(O)CCC4(C)C3CCC21C (stereo not given in full)	2.2	51.14	0.1	0.1	< 0.01	0.41	0.01	3.85	0.06	0.58	0.09	2.49
CC(C)CCCC(C)C1CCC2C3CC(CI)C4=C(CCC(O)C4)C3CCC12C (stereo not given)	1.37	111.3	116.21	2.35	0.87	0.45	0.76	4.57	1.34	4.1	33.1	17.89
C[C@H](OC(=O)c1ccccc1I)C1CCC2C3CC=C4CC(O)CCC4(C)C3CCC21C (stereo not given in full)	4.96	511.17	0.31	0.59	0.05	1.29	0.11	3.92	0.2	1.49	0.26	10.04
C[C@@H](OC(=O)c1ccccc1I)C1CCC2C3CC=C4CC(O)CCC4(C)C3CCC21C (stereo not given in full)	2.93	52.36	1.23	0.25	0.02	1.59	0.05	6.04	0.11	1.67	0.26	6.83
